According to US20090197880A1 (Genelabs Technologies, Inc., priority 2007, published 2009):

Test: HCV replicon assay (luciferase) in ET (Huh-lucubineo-ET) cell line
Type: cell-based
Conditions: Hepatitis C virus; tested at 10 μM; inhibition of replication relative to no compound control; ET replicon cells, luciferase 48-72 hours; read-out: % inhition at 10 μM

SMILES	inhibition at 10 µM [%]
CCCCc1ccc(-c2cc(Cn3cc4nc(-c5cccc(F)c5F)nc-4cn3)on2)c(F)c1 [Compound 303, 5-[3-(4-Butyl-2-fluoro-phenyl)-isoxazol-5-ylmethyl]-2-(2,3-difluoro-phenyl)-5H-imidazo[4,5-d]pyridazine]	99.8
Cc1ccc(-c2cc(Cn3cc4nc(-c5cccc(F)c5F)nc-4cn3)on2)c(C(F)(F)F)c1 [Compound 304, 2-(2,3-Difluoro-phenyl)-5-[3-(4-methyl-2-trifluoromethyl-phenyl)-isoxazol-5-ylmethyl]-5H-imidazo[4,5-d]pyridazine]	99.7
CC(C)c1ccc(-c2cc(Cn3cc4nc(-c5cccc(F)c5F)nc-4cn3)on2)cc1 [Compound 305, 2-(2,3-Difluoro-phenyl)-5-[3-(4-isopropyl-phenyl)-isoxazol-5-ylmethyl]-5H-imidazo[4,5-d]pyridazine]	99.4
Fc1cccc(-c2nc3cnn(Cc4cc(-c5ccc(I)cc5)no4)cc-3n2)c1F [Compound 306, 2-(2,3-Difluoro-phenyl)-5-[3-(4-iodo-phenyl)-isoxazol-5-ylmethyl]-5H-imidazo[4,5-d]pyridazine]	99.9
Cc1ccc(-c2cc(Cn3cc4nc(-c5cccc(F)c5F)nc-4cn3)on2)c(C)c1 [Compound 309, 2-(2,3-Difluoro-phenyl)-5-[3-(2,4-dimethyl-phenyl)-isoxazol-5-ylmethyl]-5H-imidazo[4,5-d]pyridazine]	100
Cc1cc(C#Cc2ccc(-c3cc(Cn4cc5nc(-c6cccc(F)c6F)nc-5cn4)on3)cc2)cc(C)n1 [Compound 310, 2-(2,3-Difluoro-phenyl)-5-{3-[4-(2,6-dimethyl-pyridin-4-ylethynyl)-phenyl]-isoxazol-5-ylmethyl}-5H-imidazo[4,5-d]pyridazine]	99.4
Cc1cc(CCc2ccc(-c3cc(Cn4cc5nc(-c6cccc(F)c6F)nc-5cn4)on3)cc2)cc(C)n1 [Compound 311, 2-(2,3-Difluoro-phenyl)-5-(3-{4-[2-(2,6-dimethyl-pyridin-4-yl)-ethyl]-phenyl}-isoxazol-5-ylmethyl)-5H-imidazo[4,5-d]pyridazine]	96.7
COCCCOc1ccc(-c2cc(Cn3cc4nc(-c5cccc(F)c5F)nc-4cn3)on2)cc1 [Compound 312, 2-(2,3-Difluoro-phenyl)-5-{3-[4-(3-methoxy-propoxy)-phenyl]-isoxazol-5-ylmethyl}-5H-imidazo[4,5-d]pyridazine]	98.1
COc1ccc(-c2cc(Cn3cc4nc(-c5cccc(F)c5F)nc-4cn3)on2)c(F)c1 [Compound 313, 2-(2,3-Difluoro-phenyl)-5-[3-(2-fluoro-4-methoxy-phenyl)-isoxazol-5-ylmethyl]-5H-imidazo[4,5-d]pyridazine]	99.2
CC(F)(F)c1ccc(-c2cc(Cn3cc4nc(-c5cccc(F)c5F)nc-4cn3)on2)cc1 [Compound 314, 5-{3-[4-(1,1-Difluoro-ethyl)-phenyl]-isoxazol-5-ylmethyl}-2-(2,3-difluoro-phenyl)-5H-imidazo[4,5-d]pyridazine]	99.8
CCCOc1cnc(-c2cc(Cn3cc4nc(-c5cccc(F)c5F)nc-4cn3)on2)cn1 [Compound 315, 2-(2,3-Difluoro-phenyl)-5-[3-(5-propoxy-pyrazin-2-yl)-isoxazol-5-ylmethyl]-5H-imidazo[4,5-d]pyridazine]	99.3
CCCC(F)(F)c1ccc(-c2cc(Cn3cc4nc(-c5cccc(F)c5F)nc-4cn3)on2)cc1 [Compound 316, 5-{3-[4-(1,1-Difluoro-butyl)-phenyl]-isoxazol-5-ylmethyl}-2-(2,3-difluoro-phenyl)-5H-imidazo[4,5-d]pyridazine]	99.7
Cc1ccc(-c2cc(Cn3cc4nc(-c5cccc(F)c5F)nc-4cn3)no2)nn1 [Compound 318, 2-(2,3-Difluoro-phenyl)-5-[5-(6-methyl-pyridazin-3-yl)-isoxazol-3-ylmethyl]-5H-imidazo[4,5-d]pyridazine]	50
Fc1cccc(-c2nc3cnn(Cc4cc(-c5ccc(OCC6CCOCC6)cc5C(F)(F)F)no4)cc-3n2)c1F [Compound 319, 2-(2,3-Difluoro-phenyl)-5-{3-[4-(tetrahydro-pyran-4-ylmethoxy)-2-trifluoromethyl-phenyl]-isoxazol-5-ylmethyl}-5H-imidazo[4,5-d]pyridazine]	100
COCCOc1ccc(-c2cc(Cn3cc4nc(-c5cccc(F)c5F)nc-4cn3)on2)c(C(F)(F)F)c1 [Compound 320, 2-(2,3-Difluoro-phenyl)-5-{3-[4-(2-methoxy-ethoxy)-2-trifluoromethyl-phenyl]-isoxazol-5-ylmethyl}-5H-imidazo[4,5-d]pyridazine]	99.8
Fc1cccc(-c2nc3cnn(Cc4cc(-c5ccc(-c6cnoc6)cc5C(F)(F)F)no4)cc-3n2)c1F [Compound 321, 2-(2,3-Difluoro-phenyl)-5-[3-(4-isoxazol-4-yl-2-trifluoromethyl-phenyl)-isoxazol-5-ylmethyl]-5H-imidazo[4,5-d]pyridazine]	82.5
Fc1cccc(-c2nc3cnn(Cc4cc(-c5ccc(-c6cn[nH]c6)cc5C(F)(F)F)no4)cc-3n2)c1F [Compound 322, 2-(2,3-Difluoro-phenyl)-5-{3-[4-(1H-pyrazol-4-yl)-2-trifluoromethyl-phenyl]-isoxazol-5-ylmethyl}-5H-imidazo[4,5-d]pyridazine]	94.9

SMILES	inhibition at 10 µM [%]
CC(C)Cc1ccc(-c2cc(Cn3cc4nc(-c5cccc(F)c5F)nc-4cn3)on2)c(C(F)(F)F)c1 [Compound 323, 2-(2,3-Difluoro-phenyl)-5-[3-(4-isobutyl-2-trifluoromethyl-phenyl)-isoxazol-5-ylmethyl]-5H-imidazo[4,5-d]pyridazine]	100
O=C(COc1ccc(-c2cc(Cn3cc4nc(-c5cccc(F)c5F)nc-4cn3)on2)c(C(F)(F)F)c1)N1CCCCC1 [Compound 325, 2-(4-{5-[2-(2,3-Difluoro-phenyl)-imidazo[4,5-d]pyridazin-5-ylmethyl]-isoxazol-3-yl}-3-trifluoromethyl-phenoxy)-1-piperidin-1-yl-ethanone]	8.2
Fc1cccc(-c2nc3cnn(Cc4cc(-c5ccc(OCCCC(F)(F)F)cc5)no4)cc-3n2)c1F [Compound 326, 2-(2,3-Difluoro-phenyl)-5-{3-[4-(4,4,4-trifluoro-butoxy)-phenyl]-isoxazol-5-ylmethyl}-5H-imidazo[4,5-d]pyridazine]	99.3
C#CCOc1ccc(-c2cc(Cn3cc4nc(-c5cccc(F)c5F)nc-4cn3)on2)cc1 [Compound 327]	99.7
Fc1cccc(-c2nc3cnn(Cc4cc(-c5ccc(-c6nnn[nH]6)cc5)no4)cc-3n2)c1F [Compound 328, 2-(2,3-Difluoro-phenyl)-5-{3-[4-(1H-tetrazol-5-yl)-phenyl]-isoxazol-5-ylmethyl}-5H-imidazo[4,5-d]pyridazine]	55.5
Fc1cccc(-c2nc3cnn(Cc4cc(-c5ccc(OCC6CCOC6)cc5C(F)(F)F)no4)cc-3n2)c1F (stereo not drawn) [Compound 329, 2-(2,3-Difluoro-phenyl)-5-{3-[4-(tetrahydro-furan-3-ylmethoxy)-2-trifluoromethyl-phenyl]-isoxazol-5-ylmethyl}-5H-imidazo[4,5-d]pyridazine]	99.5
Fc1cccc(-c2nc3cnn(Cc4cc(-c5ccc(CCCC(F)(F)F)cc5)no4)cc-3n2)c1F [Compound 330, 2-(2,3-Difluoro-phenyl)-5-{3-[4-(4,4,4-trifluoro-butyl)-phenyl]-isoxazol-5-ylmethyl}-5H-imidazo[4,5-d]pyridazine]	99.7
Fc1cccc(-c2nc3cnn(Cc4cc(-c5ccc(CCC(F)(F)F)cc5)no4)cc-3n2)c1F [Compound 331, 2-(2,3-Difluoro-phenyl)-5-{3-[4-(3,3,3-trifluoro-propyl)-phenyl]-isoxazol-5-ylmethyl}-5H-imidazo[4,5-d]pyridazine]	99.9
C[Si](C)(C)C#Cc1ccc(-c2cc(Cn3cc4nc(-c5cccc(F)c5F)nc-4cn3)on2)cc1 [Compound 332, 2-(2,3-Difluoro-phenyl)-5-[3-(4-trimethylsilanylethynyl-phenyl)-isoxazol-5-ylmethyl]-5H-imidazo[4,5-d]pyridazine]	99
CC(C)(C)C#Cc1ccc(-c2cc(Cn3cc4nc(-c5cccc(F)c5F)nc-4cn3)on2)cc1 [Compound 333, 2-(2,3-Difluoro-phenyl)-5-{3-[4-(3,3-dimethyl-but-1-ynyl)-phenyl]-isoxazol-5-ylmethyl}-5H-imidazo[4,5-d]pyridazine]	86.4
C#Cc1ccc(-c2cc(Cn3cc4nc(-c5cccc(F)c5F)nc-4cn3)on2)cc1 [Compound 334, 2-(2,3-Difluoro-phenyl)-5-[3-(4-ethynyl-phenyl)-isoxazol-5-ylmethyl]-5H-imidazo[4,5-d]pyridazine]	99
Fc1cccc(-c2nc3cnn(Cc4cc(-c5ccc(C#CC6CCCC6)cc5)no4)cc-3n2)c1F [Compound 335, 5-[3-(4-Cyclopentylethynyl-phenyl)-isoxazol-5-ylmethyl]-2-(2,3-difluoro-phenyl)-5H-imidazo[4,5-d]pyridazine]	96.7
Fc1cccc(-c2nc3cnn(Cc4cc(-c5ccc(C(F)F)cc5)no4)cc-3n2)c1F [Compound 336, 5-[3-(4-Difluoromethyl-phenyl)-isoxazol-5-ylmethyl]-2-(2,3-difluoro-phenyl)-5H-imidazo[4,5-d]pyridazine]	99.7
Fc1cccc(-c2nc3cnn(Cc4cc(-c5ccccc5)no4)cc-3n2)c1F [Compound 337, 2-(2,3-Difluoro-phenyl)-5-(3-phenyl-isoxazol-5-ylmethyl)-5H-imidazo[4,5-d]pyridazine]	68.5
C=Cc1ccc(-c2cc(Cn3cc4nc(-c5cccc(F)c5F)nc-4cn3)on2)cc1 [Compound 338, 2-(2,3-Difluoro-phenyl)-5-[3-(4-vinyl-phenyl)-isoxazol-5-ylmethyl]-5H-imidazo[4,5-d]pyridazine]	99.9
Fc1cccc(-c2nc3cnn(Cc4cc(-c5ccc(C#CC6CC6)cc5)no4)cc-3n2)c1F [Compound 339, 5-[3-(4-Cyclopropylethynyl-phenyl)-isoxazol-5-ylmethyl]-2-(2,3-difluoro-phenyl)-5H-imidazo[4,5-d]pyridazine]	99.8
